Experiment [1] concerns the target HEK-293 cells transfected with dox-inducible human wild type FGFR2 (Homo sapiens (Human), UniProt P21802). The experiment is described as follows: FGFR2 pFGFR cell assay (ELISA). The class given is cell-based. The following applies: HEK-293 dox-inducible FGFR2, 1 hour compound, 30 ng/ml FGF-acidic. As to the method:
(§1) FGFR2 pFGFR Cell Assay: • HEK-293 cells transfected with dox-inducible human wild type FGFR2 (SEQ ID NO: 3) were plated in a collagen or poly-D-lysine coated 96 well flat bottom plates at 4×10^5 cells/well in complete DMEM medium containing 10% FBS and 1 μg/ml doxycycline and allowed to attach for 24 h at 37° C., 5% CO2. Cells were treated with compound using 1:3 serial dilutions with a maximum final concentration of 5 μM. Compound was incubated on cells for 1 hour at 37° C., 5% CO2. Cells were then stimulated with a final concentration of 30 ng/ml human FGF-acidic (R&D Systems Cat number 232-FA/CF) for 5 minutes at 37° C., 5% CO2. Medium was removed and cells were lysed with lysis buffer containing phosphatase and protease inhibitors. Phospho FGFR2 was measured by ELISA (R&D Systems cat. no. DYC684). The ELISA captures total FGFR2 and detects total phospho tyrosine. Optical density was measured for each well using a Versamax reader at a wavelength of 450 nm. 100 POC was determined using no test compounds and 0 POC was determined using a control compound. The POC values were fit to a 4-parameter logistic curve as a function of the concentration of the compound, and the IC50 value is the point where the curve crosses 50 POC.
(In general: ELISA stands for enzyme-linked immunosorbent assay.)

For experiment [2], the target named is T1, HEK-293 cells transfected with dox-inducible human wild type FGFR3 (Homo sapiens (Human), UniProt P22607). The experiment is described as follows: FGFR3 pERK cell assay. The following applies: HEK-293 dox-inducible FGFR3, 1 hour compound, 100 ng/ml FGF-acidic; maximum concentration 5 μM. The class given is cell-based. As to the method:
(§2) FGFR3 pERK Cell Assay: • HEK-293 cells transfected with dox-inducible human wild type FGFR3 (SEQ ID NO: 5) were plated in a collagen or poly-D-lysine coated 96 well flat bottom plates at 4×10^5 cells/well in complete DMEM medium containing 10% FBS and 1 μg/ml doxycycline and allowed to attach for 24 h at 37° C., 5% CO2. Cells were treated with compound using 1:3 serial dilutions with a maximum final concentration of 5 μM. Compound was incubated on cells for 1 hour at 37° C., 5% CO2. Cells were then stimulated with a final concentration of 100 ng/ml human FGF-acidic (R&D Systems Cat number 232-FA/CF) for 5 minutes at 37° C., 5% CO2. Medium was removed, and cells were lysed with lysis buffer containing phosphatase and protease inhibitors. Phospho ERK1/2 was measured using the Meso Scale Discovery sandwich assay (Meso Scale Discovery cat. no. K151DWD). The assay captures phospho ERK1/2 and detects with a sulfo-tagged total ERK1/2 antibody. The chemiluminescent signal was read on the Sector Imager Plate reader. 100 POC was determined using no test compounds and 0 POC was determined using a control compound. The POC values were fit to a 4-parameter logistic curve as a function of the concentration of the compound, and the IC50 value is the point where the curve crosses 50 POC.

For experiment [3], the target named is HEK-293 cells transfected with dox-inducible human wild type FGFR1 (Homo sapiens (Human), UniProt P11362). The experiment is described as follows: FGFR1 pERK cell assay. The class given is cell-based. The following applies: HEK-293 dox-inducible FGFR1, 1 hour compound, 100 ng/ml FGF-acidic; maximum concentration 5 μM. As to the method: as §2, with “FGFR1” for “FGFR3”, “doxycycline(dox)-inducible” for “dox-inducible”, “1)” for “5)”, “Dulbecco's Modified Eagle Medium (DMEM)” for “DMEM medium”, “compound” for “compounds”

The target of experiment [4] is T1, HEK-293 cells transfected with dox-inducible human wild type FGFR3. Briefly: FGFR3 pFGFR cell assay (ELISA). The class given is cell-based. The following applies: HEK-293 dox-inducible FGFR3, 1 hour compound, 100 ng/ml FGF-acidic. As for the experimental part: as §1, with “FGFR3” for “FGFR2”, “5)” for “3)”, “top” for “maximum”, “100” for “30”, “FGF-acidic” for “FGF-acidic (R&D Systems Cat number 232-FA/CF)”, “cat DYC2719).” for “cat. no. DYC684).”

Experiment [5] has as its target recombinant human FGFR1 catalytic domain (amino acids 308-731) (Homo sapiens (Human), UniProt P11362). Briefly: FGFR1 enzyme activity assay (LanthaScreen TR-FRET). The class given is biochemical. The following applies: 20 min incubation at 22° C., average of multiple determinations if made, read-out: FGFR1 Enz FRET IC50. The procedure, abridged:
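His-tagged FGFR1 kinase domain with 100 nM Alexa Fluor 647-poly-GT peptide and ATP in pH 7.5 HEPES/MgCl2 buffer with 2% DMSO, 20 min at 22 °C. Quenched with EDTA plus 2 nM Eu-PY20 antibody and read after 60 min. IC50 comes from a 4-parameter fit of percent of control.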
For orientation: Time-resolved FRET reads energy transfer from a long-lived donor to a nearby acceptor.

Experiment [6] addresses phosphorylated FGFR3 (SEQ ID NO: 5, amino acids 449 to 759) (Homo sapiens (Human), UniProt P22607). Briefly: FGFR enzyme binding assay (HTRF tracer displacement), FGFR3. The following applies: 5 nM phosphorylated FGFR3, average of multiple determinations if made. In a few lines: (§3)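 Kinase and tracer were incubated with compound for 60 minutes at 22° C. Tracer displacement was then measured by HTRF, and results were expressed as POC with 1 μM control inhibitor defining full displacement.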

Experiment [7] concerns the target dephosphorylated FGFR1 (SEQ ID NO: 1, amino acids 458 to 765) (Homo sapiens (Human), UniProt P11362). Briefly: FGFR enzyme binding assay (HTRF tracer displacement), FGFR1. The following applies: 5 nM dephosphorylated FGFR1, average of multiple determinations if made. In a few lines:
as §3

Experiment [8] deals with FGFR1 (SEQ ID NO: 1, amino acids 458-765) (Homo sapiens (Human), UniProt P11362). The experiment is described as follows: LC/MS FGFR1 kobs assay (covalent protein modification). The following applies: 500 nM FGFR1, 3 μM compound. Format: binding. In a few lines:
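Covalent labeling of FGFR1 kinase domain (aa 458-765) tracked over time by intact-protein LC/MS after formic acid quench. kobs derived by fitting DMSO-normalized percent unmodified FGFR1 to an exponential decay model.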

Experiment [9] deals with recombinant human FGFR3 (amino acids R397-T806) (Homo sapiens (Human), UniProt P22607). Briefly: FGFR3 enzyme activity assay (LanthaScreen TR-FRET). Format: biochemical. The following applies: 25 μM ATP, 10 min incubation at 22° C., average of multiple determinations if made, read-out: FGFR3 Enz FRET IC50. In a few lines:
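GST-HIS6-tagged human FGFR3 (R397-T806) was reacted with 100 nM Alexa Fluor 647-Poly-GT substrate and 25 μM ATP plus compound in HEPES/MgCl2/Triton buffer, pH 7.5, 2% DMSO, for 10 min at 22 °C.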

Experiment [10] concerns the target recombinant human FGFR2 cytoplasmic domain (amino acids 403-822) (Homo sapiens (Human), UniProt P21802). Briefly: FGFR2 enzyme activity assay (LanthaScreen TR-FRET). Format: biochemical. The following applies: 15 μM ATP, 20 min incubation at 22° C., average of multiple determinations if made, read-out: FGFR2 Enz FRET IC50. In a few lines: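 Substrate phosphorylation was read by TR-FRET using Eu-PY20 antibody (60 min, 22 °C) after a 20 min, 22 °C reaction. The reaction used 15 μM ATP, 100 nM fluorescent poly-GT peptide and His-tagged FGFR2 403-822 ([…]) at pH 7.5 with 2% DMSO.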

In experiment [11] the target is FGFR3 (SEQ ID NO: 5, amino acids 449-759) (Homo sapiens (Human), UniProt P22607). The experiment is described as follows: LC/MS FGFR3 kobs assay (covalent protein modification). The following applies: 500 nM FGFR3, 3 μM compound. The class given is binding. The procedure, abridged:
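Samples are acid-quenched at set times and read by Q-TOF mass spectrometry. kobs is obtained by fitting DMSO-normalized percent unmodified protein to an exponential decay model.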

The source of these data is patent US12180207B2 (ARRAY BIOPHARMA INC., priority 2018, dated 2024).

SMILES strings stand for the structures.

Sequence of recombinant human FGFR3 (amino acids R397-T806) (P22607 397-806): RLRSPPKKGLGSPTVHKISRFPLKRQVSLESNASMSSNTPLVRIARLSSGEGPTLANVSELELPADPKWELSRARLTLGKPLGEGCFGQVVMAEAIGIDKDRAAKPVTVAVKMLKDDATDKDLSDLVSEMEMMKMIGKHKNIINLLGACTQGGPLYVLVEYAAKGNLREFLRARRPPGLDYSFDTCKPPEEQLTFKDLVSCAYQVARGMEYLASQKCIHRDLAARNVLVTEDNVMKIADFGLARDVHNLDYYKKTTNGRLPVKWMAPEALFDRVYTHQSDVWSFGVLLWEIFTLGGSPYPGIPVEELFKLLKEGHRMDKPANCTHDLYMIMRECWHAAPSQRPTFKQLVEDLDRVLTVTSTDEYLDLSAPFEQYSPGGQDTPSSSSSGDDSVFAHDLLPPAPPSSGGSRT
Sequence of dephosphorylated FGFR1 (SEQ ID NO: 1, amino acids 458 to 765) (P11362 458-765): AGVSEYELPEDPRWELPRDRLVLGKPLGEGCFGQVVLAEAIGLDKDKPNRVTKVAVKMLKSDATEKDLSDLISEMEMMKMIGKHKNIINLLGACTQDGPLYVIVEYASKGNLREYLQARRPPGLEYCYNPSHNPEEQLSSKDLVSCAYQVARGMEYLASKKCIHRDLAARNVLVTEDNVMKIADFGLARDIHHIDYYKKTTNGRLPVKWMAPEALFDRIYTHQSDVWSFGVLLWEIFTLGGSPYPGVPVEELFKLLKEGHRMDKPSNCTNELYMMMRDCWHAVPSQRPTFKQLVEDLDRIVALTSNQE
Sequence of FGFR3 (SEQ ID NO: 5, amino acids 449-759) (P22607 449-759): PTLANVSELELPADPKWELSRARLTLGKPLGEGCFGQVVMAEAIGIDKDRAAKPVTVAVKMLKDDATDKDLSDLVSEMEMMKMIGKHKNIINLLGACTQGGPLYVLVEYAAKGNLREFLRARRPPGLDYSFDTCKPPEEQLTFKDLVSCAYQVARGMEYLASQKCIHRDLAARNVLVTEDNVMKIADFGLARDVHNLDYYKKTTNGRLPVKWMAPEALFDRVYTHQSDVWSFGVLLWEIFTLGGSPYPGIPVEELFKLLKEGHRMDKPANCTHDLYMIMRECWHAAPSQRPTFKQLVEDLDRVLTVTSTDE
Sequence of phosphorylated FGFR3 (SEQ ID NO: 5, amino acids 449 to 759) (P22607 449-759): as above
Sequence of recombinant human FGFR2 cytoplasmic domain (amino acids 403-822) (P21802 402-821): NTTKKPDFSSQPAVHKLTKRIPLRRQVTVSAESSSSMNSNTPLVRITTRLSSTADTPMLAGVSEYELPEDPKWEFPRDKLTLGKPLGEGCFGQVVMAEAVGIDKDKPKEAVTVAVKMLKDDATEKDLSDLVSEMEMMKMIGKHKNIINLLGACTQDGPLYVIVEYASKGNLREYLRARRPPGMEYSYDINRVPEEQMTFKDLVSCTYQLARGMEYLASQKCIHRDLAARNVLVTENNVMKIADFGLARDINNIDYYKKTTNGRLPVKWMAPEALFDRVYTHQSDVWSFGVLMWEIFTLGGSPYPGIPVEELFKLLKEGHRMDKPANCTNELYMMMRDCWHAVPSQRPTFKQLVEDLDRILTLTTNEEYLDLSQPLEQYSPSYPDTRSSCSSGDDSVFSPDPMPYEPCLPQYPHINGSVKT
Sequence of recombinant human FGFR1 catalytic domain (amino acids 308-731) (P11362 other isoform, or with tags, fused parts or gaps): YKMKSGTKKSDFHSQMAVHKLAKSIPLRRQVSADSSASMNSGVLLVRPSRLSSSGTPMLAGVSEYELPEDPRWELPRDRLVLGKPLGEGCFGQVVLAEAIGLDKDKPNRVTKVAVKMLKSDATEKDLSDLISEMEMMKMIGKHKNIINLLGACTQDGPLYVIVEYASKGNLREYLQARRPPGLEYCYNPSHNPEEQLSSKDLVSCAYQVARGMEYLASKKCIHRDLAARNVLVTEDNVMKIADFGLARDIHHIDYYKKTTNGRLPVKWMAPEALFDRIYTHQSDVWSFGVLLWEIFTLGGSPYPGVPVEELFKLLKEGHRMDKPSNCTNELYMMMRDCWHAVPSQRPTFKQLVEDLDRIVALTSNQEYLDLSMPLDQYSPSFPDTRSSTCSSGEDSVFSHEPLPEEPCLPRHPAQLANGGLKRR
T1 sequence (P22607 23-806): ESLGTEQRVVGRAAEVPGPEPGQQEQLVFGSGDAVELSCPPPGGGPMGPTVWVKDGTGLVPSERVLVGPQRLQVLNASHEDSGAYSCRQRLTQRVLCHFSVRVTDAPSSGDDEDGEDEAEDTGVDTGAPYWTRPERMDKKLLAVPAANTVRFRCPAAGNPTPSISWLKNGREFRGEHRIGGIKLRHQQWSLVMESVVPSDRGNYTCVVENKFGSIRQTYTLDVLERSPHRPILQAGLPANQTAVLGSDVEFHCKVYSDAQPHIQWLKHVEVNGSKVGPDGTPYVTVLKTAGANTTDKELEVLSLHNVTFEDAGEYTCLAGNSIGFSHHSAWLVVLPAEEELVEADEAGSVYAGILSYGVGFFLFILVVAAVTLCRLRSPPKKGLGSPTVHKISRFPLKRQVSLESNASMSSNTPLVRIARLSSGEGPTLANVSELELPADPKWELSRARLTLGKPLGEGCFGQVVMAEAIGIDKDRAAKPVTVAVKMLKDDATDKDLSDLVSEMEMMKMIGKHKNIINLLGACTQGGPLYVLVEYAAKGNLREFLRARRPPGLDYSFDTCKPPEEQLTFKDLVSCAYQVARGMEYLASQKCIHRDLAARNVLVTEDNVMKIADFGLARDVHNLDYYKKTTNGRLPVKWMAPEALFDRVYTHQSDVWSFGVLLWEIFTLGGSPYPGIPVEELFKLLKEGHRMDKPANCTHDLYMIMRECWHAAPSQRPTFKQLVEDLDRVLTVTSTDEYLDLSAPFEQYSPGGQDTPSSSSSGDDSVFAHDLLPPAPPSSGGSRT
Sequence of HEK-293 cells transfected with dox-inducible human wild type FGFR2 (P21802 22-821): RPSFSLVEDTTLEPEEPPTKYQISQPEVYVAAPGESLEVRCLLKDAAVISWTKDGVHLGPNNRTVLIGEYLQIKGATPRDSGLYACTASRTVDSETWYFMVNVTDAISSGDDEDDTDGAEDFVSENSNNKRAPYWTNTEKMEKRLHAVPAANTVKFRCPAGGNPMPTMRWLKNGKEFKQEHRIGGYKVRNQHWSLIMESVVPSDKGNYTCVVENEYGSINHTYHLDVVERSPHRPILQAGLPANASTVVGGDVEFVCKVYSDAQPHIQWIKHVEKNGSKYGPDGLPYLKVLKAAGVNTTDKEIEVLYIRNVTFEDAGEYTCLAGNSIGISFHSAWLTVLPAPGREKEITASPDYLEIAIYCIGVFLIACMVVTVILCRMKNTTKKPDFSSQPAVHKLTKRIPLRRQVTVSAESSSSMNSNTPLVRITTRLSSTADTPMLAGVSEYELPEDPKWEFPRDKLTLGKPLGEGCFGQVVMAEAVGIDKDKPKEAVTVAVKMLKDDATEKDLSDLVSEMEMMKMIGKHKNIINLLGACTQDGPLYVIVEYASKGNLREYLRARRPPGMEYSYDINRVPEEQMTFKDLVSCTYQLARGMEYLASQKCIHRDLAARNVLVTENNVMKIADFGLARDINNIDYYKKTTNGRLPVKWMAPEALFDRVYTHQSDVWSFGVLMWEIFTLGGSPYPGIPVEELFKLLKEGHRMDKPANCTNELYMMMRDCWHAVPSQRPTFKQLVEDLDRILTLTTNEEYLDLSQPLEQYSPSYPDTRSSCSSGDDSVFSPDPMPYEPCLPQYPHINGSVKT
Sequence of HEK-293 cells transfected with dox-inducible human wild type FGFR1 (P11362 22-822): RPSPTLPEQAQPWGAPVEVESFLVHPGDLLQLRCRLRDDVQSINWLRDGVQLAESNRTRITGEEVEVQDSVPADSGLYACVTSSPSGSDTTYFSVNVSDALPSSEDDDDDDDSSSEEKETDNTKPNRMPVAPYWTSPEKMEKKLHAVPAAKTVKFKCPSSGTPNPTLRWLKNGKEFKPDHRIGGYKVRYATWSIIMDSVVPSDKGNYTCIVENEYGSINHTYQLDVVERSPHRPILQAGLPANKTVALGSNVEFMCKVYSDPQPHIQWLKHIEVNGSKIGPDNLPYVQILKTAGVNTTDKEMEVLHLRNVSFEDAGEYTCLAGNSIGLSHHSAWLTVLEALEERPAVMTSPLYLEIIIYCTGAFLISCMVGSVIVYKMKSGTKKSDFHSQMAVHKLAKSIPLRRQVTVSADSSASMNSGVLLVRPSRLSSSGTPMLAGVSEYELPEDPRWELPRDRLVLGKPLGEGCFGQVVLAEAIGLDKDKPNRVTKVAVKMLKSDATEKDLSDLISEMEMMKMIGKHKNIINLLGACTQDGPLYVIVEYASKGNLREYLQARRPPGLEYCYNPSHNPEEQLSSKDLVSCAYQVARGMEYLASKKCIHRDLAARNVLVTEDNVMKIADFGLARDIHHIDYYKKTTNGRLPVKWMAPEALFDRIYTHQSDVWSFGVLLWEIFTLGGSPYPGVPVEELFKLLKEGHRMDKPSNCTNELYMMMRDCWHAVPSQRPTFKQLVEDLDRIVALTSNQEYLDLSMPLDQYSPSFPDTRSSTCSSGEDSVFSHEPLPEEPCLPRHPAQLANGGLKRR
Sequence of FGFR1 (SEQ ID NO: 1, amino acids 458-765) (P11362 458-765): as the sequence (P11362 458-765) above

The term IC50 denotes the concentration that inhibits the measured activity by half. As to `COc1cc(-c2cnn(C3CCN(C(=O)C4CN(C(=O)/C=C/CF)C4)CC3)c2)cn2ncc(C#N)c12` [Example 142], the IC50 in [1] was 424 nM; in experiment [2] it was 119 nM; in experiment [3], 769 nM.

Take `COc1cc(-c2cnn(C3CCN(C(=O)/C=C/CN(C)C)CC3)c2)cn2ncc(C#N)c12` [Example 144, (E)-6-(1-(1-(4-(dimethylamino)benoyl)piperidin-4-yl)-1H-pyrazol-4-yl)-4-methoxypyrazol14 5o[1,5-a]pyridine-3-carbonitrile]: the IC50 in experiment [1] stood at 34 nM.

For `COc1cc(-c2cnn(C3CCN(C(=O)C4CN(C(=O)C#CCN(C)C)C4)CC3)c2)cn2ncc(C#N)c12` [Example 176, 6-(1-(1-(1-(4-(dimethylamino)but-2-ynoyl)azetidine-3-carbonyl)piperidin-4-yl)-1H-pyrazol-4-yl)-4-methoxypyrazolo[1,5-a]pyridine-3-carbonitrile], the IC50 in experiment [4] worked out at 18 nM; in experiment [5], 1200 nM; in experiment [6], 15 nM; in [7] it was 136 nM; in experiment [9], 1160 nM. The “FGFR1 Enz kobs” value in experiment [8] was 0.0497 min⁻¹.

Consider `C=CS(=O)(=O)N1CC[C@H](C(=O)N2CCC(n3cc(-c4cc(OC)c5c(C#N)cnn5c4)cn3)CC2)C1` [Example 189, (S)-4-methoxy-6-(1-(1-(1-(vinylsulfonyl)pyrrol-idine-3-carbonyl)piperidin-4-yl)-1H-pyrazol-4-yl)pyrazolo[1,5-a]pyridine-3-carbonitrile], for which the half-maximal inhibitory concentration (IC50) in experiment [4] worked out at 9 nM; in experiment [10], 3 nM; in [6], 3 nM; in experiment [9], 4 nM. The “FGFR3 Enz kobs” value in [11] stood at 0.0728 min⁻¹.

On to `C=CS(=O)(=O)N1CC(C(=O)N2CCC(n3cc(-c4cc(OC)c5c(C#N)cnn5c4)cn3)CC2)C1` [Example 192, 4-methoxy-6-(1-(1-(1-(vinylsulfonyl)azetidine-3-carbonyl)piperidin-4-yl)-1H-pyrazol-4-yl)pyrazolo[1,5-a]pyridine-3-carbonitrile], for which the IC50 in [4] turned out to be 12 nM; in experiment [10] it was 9 nM; in [5] it was 14 nM; in experiment [6] it was 12 nM; in experiment [7], 70 nM; in experiment [9] it was 3 nM. Besides, in experiment [11], the “FGFR3 Enz kobs” value was found to be 0.1008 min⁻¹.

For `C=CS(=O)(=O)N1CCC2(CC1)CC(C(=O)N1CCC(n3cc(-c4cc(OC)c5c(C#N)cnn5c4)cn3)CC1)C2` [Example 195, 4-methoxy-6-(1-(1-(7-(vinylsulfonyl)-7-azaspiro[3.5]nonane-2-carbonyl)piperidin-4-yl)-1H-pyrazol-4-yl)pyrazolo[1,5-a]pyridine-3-carbonitrile], the IC50 in experiment [4] is 14 nM; in experiment [10], 7 nM; in [5], 19 nM; in experiment [6] it was 4 nM; in experiment [7] it was 50 nM; in [9], 5 nM. Besides, the “FGFR3 Enz kobs” value in experiment [11] was 0.02572 min⁻¹.
